In US7709504B2, “Use of Substituted 2-thio-3,5-dicyano-4-phenyl-6-aminopyridines in the treatment of nausea and vomiting” (Bayer Schering Pharma Aktiengesellschaft, priority 2004, dated 2010):

System: ferrets
Assay: Emetine-induced retching tests on ferrets
Type: in vivo
Settings: for antiemetic effect: test substance 0.3 and 3.0 mg/kg p.o. 60 min before emetine
Protocol: Emetine-Induced Retching Tests on Ferrets:
The determination of the antiemetic action follows the method described by Gardner et al. in Brit. J. Pharmacol., 116, 3158-3163, 1995.
Sixty minutes before administration of the test substance, the ferrets were accommodated in individual stainless steel cages (40×50×34 cm) having a grid floor. The animals were then treated with emetine (2 mg/kg p.o.) and observed immediately for a period of 2 hours with a view to the following points: • number of ferrets which show signs of retching and vomiting; • latency up to initial retching (hours, minutes, seconds); • latency up to initial vomiting (hours, minutes, seconds); • retching (how often); • vomiting (how often); • number of nauseas; • average duration of the vomiting periods (minutes, seconds); • serious side effects on behavior.
Retching is defined according to the invention as a rhythmical respiratory movement against closed vocal cords, while vomiting is defined according to the invention as a forced expulsion of the higher stomach and intestinal contents.
32 ferrets were investigated. The substance tested was administered in two doses, orally sixty minutes before emetine administration, and compared to a control group. Ondansetrone (16 mg/kg p.o.) was given under the same experimental conditions and served as a reference substance.
The 32 ferrets were employed repeatedly in order to investigate 4 test substances. The administration scheme for the three-week experiment looked as follows:
The amounts were analyzed and the student's test was used in the comparison of the treated groups with the control group.
The […] data were analyzed, Fisher's exact probability test being used for the comparison of the treated groups with the control group.

[1] = ferrets given emetine 2 mg/kg p.o., vs control group
[2] = 16 mg/kg p.o., ferrets, emetine 2 mg/kg p.o., 2 h observation

For N#Cc1c(NCCO)nc(SCc2ccccc2)c(C#N)c1-c1ccccc1 [Substance 1], the antiemetic effect [1] was “no significant antiemetic effect”.
In the case of COCCOc1ccc(-c2c(C#N)c(N)nc(SCc3cccnc3)c2C#N)cc1 [Substance 2], the antiemetic effect [1] was “no significant antiemetic effect”.
For CC(=O)Nc1ccc(-c2c(C#N)c(N)nc(SCc3ccccn3)c2C#N)cc1 [Substance 3], the “prevention of emetine-induced vomiting” value (ferrets given emetine 2 mg/kg p.o., test substance in two doses orally 60 min before emetine, vs control group) was “significantly prevented”.
In the case of Cc1nccn1CC1CCc2c(c3ccccc3n2C)C1=O (centres unmarked) [ondansetrone, Ondansetrone, reference compound], the “number of ferrets in which emesis was induced” value [2] was “one of 16” and the “quantitative occurrence of retching and vomiting (induced by emetine)” value [2] was “significantly reduced”.
